How the values were obtained:
[1] = target: T1, recombinant human ALK5 (TGF-βR1) protein (Homo sapiens, UniProt P36897); experiment: Biochemical ALK5 (TGF-βR1) assay to measure pKi (LANCE Ultra ULight kinase assay); conditions: apparent pKi, converted from pIC50 using the Cheng-Prusoff equation
T1 construct: purchased Life Technologies PR9075A
T1 sequence (P36897 34-503): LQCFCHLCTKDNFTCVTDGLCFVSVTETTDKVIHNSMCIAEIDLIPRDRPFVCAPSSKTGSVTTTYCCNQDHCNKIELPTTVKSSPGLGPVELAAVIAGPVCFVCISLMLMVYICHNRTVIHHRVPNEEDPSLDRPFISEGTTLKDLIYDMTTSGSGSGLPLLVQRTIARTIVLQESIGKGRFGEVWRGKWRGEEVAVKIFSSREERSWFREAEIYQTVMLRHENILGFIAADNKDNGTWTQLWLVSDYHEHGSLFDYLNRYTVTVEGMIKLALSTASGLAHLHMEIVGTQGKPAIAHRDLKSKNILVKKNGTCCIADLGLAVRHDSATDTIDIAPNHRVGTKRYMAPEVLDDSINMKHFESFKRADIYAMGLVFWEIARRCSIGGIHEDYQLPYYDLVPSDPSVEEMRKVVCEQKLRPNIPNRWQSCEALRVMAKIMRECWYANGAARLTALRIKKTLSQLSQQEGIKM
Method in brief: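 TR-FRET kinase format: compound dose range 10 μM–25 pM equilibrated 60 min with human ALK5 and ULight-labelled topoisomerase 2α peptide in HEPES/MgCl2 buffer pH 7.5 with DTT. Reaction started with ATP (125 μM stock, 5× final), 60 min at 37° C, stopped with EDTA/Eu-anti-phospho antibody; pKi derived from pIC50 via Cheng-Prusoff.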

[2] = test system: TGF-β-stimulated SMAD3 phosphorylation in BEAS-2B cells; experiment: Cellular ALK5 potency assay, inhibition of TGF-β stimulated pSMAD3 formation in BEAS-2B cells; format: cell-based; conditions: Homo sapiens, inhibition of TGF-β (10 ng/mL) stimulated pSMAD3 formation, 1 hour compound incubation, read-out: BEAS2B pIC50 (converted)
Method in brief: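 Phospho-SMAD3 was quantified by AlphaLISA in lysates of human lung epithelial BEAS-2B cells. Compound was added 1 h (37 °C, HEPES/BSA-supplemented HBSS) before a 30 min challenge with 10 ng/mL TGF-β. Values are pIC50 relative to stimulated cells without compound.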

Structure (SMILES)	Ki [1]	IC50 [2]
Fc1ccc(Cl)cc1-c1n[nH]cc1-c1ccc2ncc(-c3cnn(CC4CNC4)c3)cc2n1 [Compound 1-88, 7-[1-(azetidin-3-ylmethyl)pyrazol-4-yl]-2-[3-(5-chloro-2-fluoro-phenyl)-1H-pyrazol-4-yl]-1,5-naphthyridine]	0.0398 to 0.316 nM	25.1 to 158 nM
CNCCn1cc(-c2cnc3ccc(-c4c[nH]nc4-c4cc(Cl)ccc4F)cc3c2)cn1 [Compound 16-1, 2-(4-(6-(3-(5-chloro-2-fluorophenyl)-1H-pyrazol-4-yl)quinolin-3-yl)-1H-pyrazol-1-yl)-N-methylethan-1-amine]	≤ 0.0316 nM	≤ 20 nM
CN(C)C1CC=C(c2cnc3ccc(-c4c[nH]nc4-c4ccc(F)c(F)c4)nc3c2)CC1 (stereo not drawn) [Compound 8-25, 4-[6-[3-(3,4-difluorophenyl)-1H-pyrazol-4-yl]-1,5-naphthyridin-3-yl]-N,N-dimethyl-cyclohex-3-en-1-amine]	0.0398 to 0.316 nM	25.1 to 158 nM
Fc1ccc(Cl)cc1-c1[nH]nnc1-c1ccc2ncc(N3CCCNCC3)cc2c1 [Compound 18-7, 6-[5-(5-chloro-2-fluoro-phenyl)-1H-triazol-4-yl]-3-(1,4-diazepan-1-yl)quinoline]	3.98 to 31.6 nM	200 to 1260 nM
O=C(O)[C@H]1CN(c2cnc3ccc(-c4nc[nH]c4-c4cc(Cl)ccc4F)nc3c2)CCN1 [Compound 2-28, (2R)-4-[6-[5-(5-chloro-2-fluoro-phenyl)-1H-imidazol-4-yl]-1,5-naphthyridin-3-yl]piperazine-2-carboxylic acid]	0.398 to 3.16 nM	200 to 1260 nM
Fc1ccc(Cl)cc1-c1n[nH]cc1-c1ccc2ncc(N3CCn4nc(N5CCNCC5)cc4C3)cc2n1 [Compound 1-128, 2-[3-(5-chloro-2-fluoro-phenyl)-1H-pyrazol-4-yl]-7-(2-piperazin-1-yl-6,7-dihydro-4H-pyrazolo[1,5-a]pyrazin-5-yl)-1,5-naphthyridine]	0.0398 to 0.316 nM	200 to 1260 nM
CC(C)N1CC=C(c2cnc3ccc(-c4c[nH]nc4-c4ccc(F)c(F)c4)nc3c2)C1 [Compound 8-23, 2-[3-(3,4-difluorophenyl)-1H-pyrazol-4-yl]-7-(1-isopropyl-2,5-dihydropyrrol-3-yl)-1,5-naphthyridine]	0.398 to 3.16 nM	25.1 to 158 nM
CN1CCC(Nc2cnc3ccc(-c4c[nH]nc4-c4cc(Cl)ccc4F)nc3c2)C1 (stereo not drawn) [Compound 1-4, 6-[3-(5-chloro-2-fluoro-phenyl)-1H-pyrazol-4-yl]-N-(1-methylpyrrolidin-3-yl)-1,5-naphthyridin-3-amine]	0.398 to 3.16 nM	25.1 to 158 nM
Fc1ccc(Cl)cc1-c1n[nH]cc1-c1ccc2ncc(NCC3CN4CCN3CC4)cc2n1 (stereo not drawn) [Compound 1-10, 6-[3-(5-chloro-2-fluoro-phenyl)-1H-pyrazol-4-yl]-N-(1,4-diazabicyclo[2.2.2]octan-2-ylmethyl)-1,5-naphthyridin-3-amine]	0.0398 to 0.316 nM	≤ 20 nM
CN1CCN(C2CCN(c3cnc4ccc(-c5c[nH]nc5-c5cc(Cl)c(F)cc5F)nc4c3)CC2)CC1 [Compound 6-17, 2-[3-(5-chloro-2,4-difluoro-phenyl)-1H-pyrazol-4-yl]-7-[4-(4-methylpiperazin-1-yl)-1-piperidyl]-1,5-naphthyridine]	0.0398 to 0.316 nM	25.1 to 158 nM
NCCn1cc(-c2cnc3ccc(-c4nc[nH]c4-c4cc(Cl)c(F)cc4F)nc3c2)cn1 [Compound 7-5, 2-[4-[6-[5-(5-chloro-2,4-difluoro-phenyl)-1H-imidazol-4-yl]-1,5-naphthyridin-3-yl]pyrazol-1-yl]ethanamine]	0.0398 to 0.316 nM	25.1 to 158 nM
Fc1ccc(-c2n[nH]cc2-c2ccc3ncc(N4CCNCC4)cc3n2)cc1F [Compound 8-4, 2-[3-(3,4-difluorophenyl)-1H-pyrazol-4-yl]-7-piperazin-1-yl-1,5-naphthyridine]	3.98 to 31.6 nM	25.1 to 158 nM
Fc1cc(F)c(-c2n[nH]cc2-c2ccc3ncc(-c4cn(Cc5cnc6c(c5)CNCC6)nn4)cc3n2)cc1Cl [Compound 6-63, 2-[3-(5-chloro-2,4-difluoro-phenyl)-1H-pyrazol-4-yl]-7-[1-(5,6,7,8-tetrahydro-1,6-naphthyridin-3-ylmethyl)triazol-4-yl]-1,5-naphthyridine]	0.0398 to 0.316 nM	25.1 to 158 nM
CNC1CCN(c2cnc3ccc(-c4c(-c5cc(Cl)ccc5F)[nH]c5cccnc45)nc3c2)CC1 [Compound 25-1, 1-[6-[2-(5-chloro-2-fluoro-phenyl)-1H-pyrrolo[3,2-b]pyridin-3-yl]-1,5-naphthyridin-3-yl]-N-methyl-piperidin-4-amine]	3.98 to 31.6 nM	200 to 1260 nM
Fc1ccc(Cl)cc1-c1n[nH]cc1-c1ccc2ncc(C3=CCNC3)cc2n1 [Compound 1-93, 2-[3-(5-chloro-2-fluoro-phenyl)-1H-pyrazol-4-yl]-7-(2,5-dihydro-1H-pyrrol-3-yl)-1,5-naphthyridine]	0.0398 to 0.316 nM	≤ 20 nM
Fc1ccc(Cl)cc1-c1[nH]cnc1-c1ccc2ncc(N3CCNCC3)cc2n1 [Compound 2-8, 2-[5-(5-chloro-2-fluoro-phenyl)-1H-imidazol-4-yl]-7-piperazin-1-yl-1,5-naphthyridine]	0.0398 to 0.316 nM	≤ 20 nM
Fc1ccc(Cl)cc1-c1[nH]cnc1-c1ccc2ncc(-c3cnc4n3CCNC4)cc2c1 [Compound 17-10, 6-[5-(5-chloro-2-fluoro-phenyl)-1H-imidazol-4-yl]-3-(5,6,7,8-tetrahydroimidazo[1,2-a]pyrazin-3-yl)quinoline]	0.398 to 3.16 nM	25.1 to 158 nM
CN(C)C1CCN(c2cnc3ccc(-c4c[nH]nc4-c4cc(Cl)c(F)cc4F)nc3c2)C1 (racemic) [Compound 6-22, rac-(3S)-1-[6-[3-(5-chloro-2,4-difluoro-phenyl)-1H-pyrazol-4-yl]-1,5-naphthyridin-3-yl]-N,N-dimethyl-pyrrolidin-3-amine]	0.0398 to 0.316 nM	25.1 to 158 nM
CN1CCN(CCNc2cnc3ccc(-c4c[nH]nc4-c4cc(Cl)ccc4F)nc3c2)CC1 [Compound 1-12, 6-[3-(5-chloro-2-fluoro-phenyl)-1H-pyrazol-4-yl]-N-[2-(4-methylpiperazin-1-yl)ethyl]-1,5-naphthyridin-3-amine]	0.0398 to 0.316 nM	≤ 20 nM
Fc1cc(F)c(-c2n[nH]cc2-c2ccc3ncc(NCC4CCCNC4)cc3n2)cc1Cl (stereo not drawn) [Compound 6-66, 6-[3-(5-chloro-2,4-difluoro-phenyl)-1H-pyrazol-4-yl]-N-(3-piperidylmethyl)-1,5-naphthyridin-3-amine]	0.398 to 3.16 nM	200 to 1260 nM
CNCCn1cc(-c2cnc3ccc(-c4c(-c5cc(Cl)c(F)cc5F)[nH]c5cccnc45)nc3c2)cn1 [Compound 26-1, 2-[4-[6-[2-(5-chloro-2,4-difluoro-phenyl)-1H-pyrrolo[3,2-b]pyridin-3-yl]-1,5-naphthyridin-3-yl]pyrazol-1-yl]-N-methyl-ethanamine]	0.0398 to 0.316 nM	200 to 1260 nM
CC(C)N1CCN(CCNc2cnc3ccc(-c4c(-c5cc(Cl)ccc5F)nc5ccccn45)nc3c2)CC1 [Compound 3-1, 6-(2-(5-chloro-2-fluorophenyl)imidazo[1,2-a]pyridin-3-yl)-N-(2-(4-isopropylpiperazin-1-yl)ethyl)-1,5-naphthyridin-3-amine]	0.0398 to 0.316 nM	25.1 to 158 nM
O=C(O)CC1CNCCN1CCNc1cnc2ccc(-c3nc[nH]c3-c3cc(Cl)ccc3F)nc2c1 (stereo not drawn) [Compound 2-34, 2-[1-[2-[[6-[5-(5-chloro-2-fluoro-phenyl)-1H-imidazol-4-yl]-1,5-naphthyridin-3-yl]amino]ethyl]piperazin-2-yl]acetic acid]	0.0398 to 0.316 nM	200 to 1260 nM
Fc1cc(F)c(-c2n[nH]cc2-c2ccc3ncc(NC[C@@H]4CCCCN4)cc3n2)cc1Cl [Compound 6-12, 6-[3-(5-chloro-2,4-difluoro-phenyl)-1H-pyrazol-4-yl]-N-[[(2S)-2-piperidyl]methyl]-1,5-naphthyridin-3-amine]	0.398 to 3.16 nM	25.1 to 158 nM
CNC(=O)C1CN(c2cnc3ccc(-c4c[nH]nc4-c4cc(Cl)ccc4F)nc3c2)CCN1C(C)C (racemic) [Compound 1-78, rac-(2R)-4-[6-[3-(5-chloro-2-fluoro-phenyl)-1H-pyrazol-4-yl]-1,5-naphthyridin-3-yl]-1-isopropyl-N-methyl-piperazine-2-carboxamide]	0.0398 to 0.316 nM	25.1 to 158 nM
CN1C[C@H]2C[C@@H]1CN2c1cnc2ccc(-c3c[nH]nc3-c3cc(Cl)ccc3F)nc2c1 (racemic) [Compound 1-42, 2-[3-(5-chloro-2-fluoro-phenyl)-1H-pyrazol-4-yl]-7-[rac-(1R,4R)-5-methyl-2,5-diazabicyclo[2.2.1]heptan-2-yl]-1,5-naphthyridine]	3.98 to 31.6 nM	25.1 to 158 nM
CN1CC(Nc2cnc3ccc(-c4c[nH]nc4-c4cc(Cl)ccc4F)nc3c2)C1 [Compound 1-7, 6-[3-(5-chloro-2-fluoro-phenyl)-1H-pyrazol-4-yl]-N-(1-methylazetidin-3-yl)-1,5-naphthyridin-3-amine]	0.0398 to 0.316 nM	≤ 20 nM

Reference: patent US11730720B2, “ALK5 inhibitors” (THERAVANCE BIOPHARMA R&D IP, LLC, priority 2018, dated 2023)
